Test results as given in US20230150951A1, “2,5- OR 2,6-DISUBSTITUTED HYDROQUINONE DERIVATIVES WITH AT LEAST ONE CARBOXY, SULFO OR AMIDO GROUP USEFUL AS MEDICAMENTS” (OM PHARMA SA, priority 2020, published 2023).
Where two headings read alike, the source gives them in different places.

Assays:
Assay type in all cases: cell-based
GM-CSF = assay: Cytokine release after LPS induction on human whole blood: GM-CSF
Protocol: (§1) Aim of this in vitro method is to assess compounds effects on release of a panel of cytokines from whole blood following lipopolysaccharide (LPS) induced inflammatory reaction. Whole blood was incubated with compounds for 1 h prior to LPS induction. Cytokine levels in blood were measured using a multiplex FACS-based panel.
(§2) IC50 values determined for the tested compounds expressed in microM [μM] and the values for the inhibition of cytokines were listed for each compound.
(§3) Effect on cytokines release after LPS induction was performed on the compounds dissolved in DMSO or H2O to reach 10-fold concentrated stock solutions and dissolved in culture media.
(§4) Test system: Whole blood was removed from a single donor (into lithium heparin coated tubes; BD Vacutainer; 367886) and diluted 1:5 with RPMI 1640 (Thermo Fisher, 61870036). Within 30 minutes of sampling, blood was incubated with compounds for 1 h prior to LPS stimulation (O111:B4—Sigma L4391; 10 ng/ml final concentration). Stimulation continued under standard cell culture conditions (37° C. with 5% CO2) overnight (18 h), after which plates were centrifuged and supernatant removed and frozen at −80° C. until used for analyses.
(§5) Dilution of test compounds: 10×concentrated solutions (concerning to the final assay concentrations) of each test compound were prepared with the appropriate solvent (in DMSO or in water). These 10× compound solutions (10 μl) were then added to 90 μl pre-diluted whole blood (whole blood: RPMI1640, 1:5) resulting in the final assay concentration.
(§6) Test method: Diluted whole blood (80 μl) was pre-incubated with compounds (10 μl) to give final assay concentrations of 100, 30, 10, 3, 1, 0.3 and 0.1×10^−6M. Blood was incubated at 37° C. with 5% CO2 for 1 h. LPS was diluted in cell culture media to a concentration of […]; 10 μl was added to the whole blood to give a final concentration of 10 ng/ml. Plates were incubated at 37° C. for 18 h. Plates were centrifuged at 3,000 RPM for 5 minutes at 4° C. and supernatant removed and frozen at −80° C. until FACS analysis was carried out.
(§7) Cytokine release was measured using a custom multiplex system (ELISA Genie) according to manufacturers instructions. Prepared samples were run on an Attune NxT flow cytometer (Thermo Fisher).
(§8) Quantification of cytokine release inhibition: known concentration standards were run as part of the cytokine panel to allow quantification of each cytokine concentration in each sample. This was carried out using FCAP Array v3.0 software.
(§9) Results: The dose response relationship on cytokine release following LPS induction of inflammatory response in whole blood was assessed for all compounds. IC50 values were determined for each compound for a panel of cytokines (GM-CSF, IFN-gamma, IL-1beta, IL-2, IL-4, IL-5, IL-6, IL-8, IL-9, IL-10, IL-12p40, IL-13, IL-17A, IL-17F, IL-18, IL-21, IL-22, IL-33, TGF-beta, TNF-alpha, TNF-beta).

IL-2 = assay: Cytokine release after LPS induction on human whole blood: IL-2
Protocol: as §1, §2, §3, §4, §5, §6, §7, §8, §9

IL-6 = assay: Cytokine release after LPS induction on human whole blood: IL-6
Protocol: as §1, §2, §3, §4, §5, §6, §7, §8, §9

IL-12p70 = assay: Cytokine release after LPS induction on human whole blood: IL-12p70
IL-17F = assay: Cytokine release after LPS induction on human whole blood: IL-17F
Protocol: as §1, §2, §3, §4, §5, §6, §7, §8, §9

IL-21 = assay: Cytokine release after LPS induction on human whole blood: IL-21
Protocol: as §1, §2, §3, §4, §5, §6, §7, §8, §9

[1] = Homo sapiens, LPS 10 ng/ml, 18 h, read-out: Whole Blood: GM-CSF IC50
[2] = human whole blood, inhibition of LPS induced inflammation, read-out: IC50 GM-CSF
[3] = Homo sapiens, LPS 10 ng/ml, 18 h, read-out: Whole Blood: IL-2 IC50
[4] = human whole blood, inhibition of LPS induced inflammation, read-out: IC50 IL-2
[5] = Homo sapiens, LPS 10 ng/ml, 18 h, read-out: Whole Blood: IL-6 IC50
[6] = human whole blood, inhibition of LPS induced inflammation, read-out: IC50 IL-6
[7] = Homo sapiens, LPS 10 ng/ml, 18 h, read-out: Whole Blood: IL-12p70 IC50
[8] = human whole blood, inhibition of LPS induced inflammation, read-out: IC50 IL-12p70
[9] = Homo sapiens, LPS 10 ng/ml, 18 h, read-out: Whole Blood: IL-17F IC50
[10] = human whole blood, inhibition of LPS induced inflammation, read-out: IC50 IL-17F
[11] = Homo sapiens, LPS 10 ng/ml, 18 h, read-out: Whole Blood: IL-21 IC50
[12] = human whole blood, inhibition of LPS induced inflammation, read-out: IC50 IL-21

Row | Compound | IC50 (GM-CSF; [1]) | IC50 (GM-CSF; [2]) | IC50 (IL-2; [3]) | IC50 (IL-2; [4]) | IC50 (IL-6; [5]) | IC50 (IL-6; [6]) | IC50 (IL-12p70; [7]) | IC50 (IL-12p70; [8]) | IC50 (IL-17F; [9]) | IC50 (IL-17F; [10]) | IC50 (IL-21; [11]) | IC50 (IL-21; [12])
1 | CCOC(=O)c1cc(NC(=O)c2cc(O)c(C(=O)OCC)cc2O)cc(NC(=O)c2cc(O)c(C(=O)OCC)cc2O)c1 [Ib-010a-E3, ethyl 3,5-bis(2,5-dihydroxy-4-ethoxycarbonylbenzoylamino)benzoate] | > 100 µM | 100 µM | 36.2 µM | 36.2 µM | 0.24 µM | 0.24 µM | 0.84 µM | 0.84 µM | 34.2 µM | 34.2 µM | > 100 µM | 100 µM
2 | O=C(O)c1cc(O)c(CN(Cc2cc(O)c(C(=O)O)cc2O)Cc2cc(O)c(C(=O)O)cc2O)cc1O [IIIc-061a, Tris(4-carboxy-2,5-dihydroxyphenylmethyl)amine] | 31.2 µM | 31.2 µM | > 100 µM | 100 µM | 0.18 µM | 0.18 µM | 37.2 µM | 37.2 µM | 0.32 µM | 0.32 µM | 6.38 µM | 6.38 µM
3 | O=C(O)c1cc(NC(=O)c2cc(O)c(C(=O)Nc3ccc(O)c(C(=O)O)c3)cc2O)ccc1O [Ic-007a, 5-(4-(3-carboxy-4-hydroxyphenylaminocarbonyl)-2,5-dihydroxybenzamido)-2-hydroxy benzoic acid] | > 100 µM | 100 µM | > 100 µM | 100 µM | 0.09 µM | 0.09 µM | 0.49 µM | 0.49 µM | 22.9 µM | 22.9 µM | 1.9 µM | 1.9 µM
4 | O=C(O)c1cc(O)ccc1NC(=O)c1cc(O)cc(C(=O)Nc2ccc(O)cc2C(=O)O)c1O [IIc-009a, 2-(3-(2-carboxy-4-hydroxyphenylaminocarbonyl)-2,5-dihydroxybenzamido)-5-hydroxyl benzoic acid] | > 100 µM | 100 µM | 19.6 µM | 19.6 µM | 0.27 µM | 0.27 µM | > 100 µM | 100 µM | 0.13 µM | 0.13 µM | 8.01 µM | 8.01 µM
5 | O=C(O)c1cc(NC(=O)c2cc(O)cc(C(=O)Nc3ccc(O)c(C(=O)O)c3)c2O)ccc1O [IIc-007a, 5-(3-(3-carboxy-4-hydroxyphenylaminocarbonyl)-2,5-dihydroxybenzamido)-2-hydroxy benzoic acid] | 26 µM | 26 µM | 12.8 µM | 12.8 µM | 0.05 µM | 0.05 µM | 3.37 µM | 3.37 µM | 0.26 µM | 0.26 µM | 9.41 µM | 9.41 µM
6 | O=C(O)c1ccccc1CNC(=O)c1cc(O)cc(C(=O)O)c1O [IIa-053a, 3-(2-Carboxyphenylmethylaminocarbonyl)-2,5-dihydroxybenzoic acid] | > 100 µM | 100 µM | 1.67 µM | 1.67 µM | 2.2 µM | 2.2 µM | 0.27 µM | 0.27 µM | 28.8 µM | 28.8 µM | > 100 µM | 100 µM
